Laboratory results taken from patent US12186278B2, “Mesothelin chimeric antigen receptor (CAR) and antibody against PD-L1 inhibitor for combined use in anticancer therapy” (Novartis AG, priority 2015, dated 2025).

How the values were obtained:
[1] = Pharmacokinetic analysis of RAD001 in blood of NSG mice with NALM6 tumors; format: in vivo
Method: (§1) RAD001 dosing: A concentrated micro-emulsion of 50 mg equal to 1 mg RAD001 was formulated and then resuspended in D5W (dextrose 5% in water) at the time of dosing. Mice were orally dosed daily (via oral gavage) with 200 μl of the desired doses of RAD001.
PK analysis: Mice were dosed daily with RAD001 starting 7 days post tumor implantation. Dosing groups were as follows: 0.3 mg/kg, 1 mg/kg, 3 mg/kg, and 10 mg/kg. Mice were bled on days 0 and 14 following the first and last dose of RAD001, at the following time points for PK analysis: 15 minutes, 30 minutes, 1 hour, 2 hours, 4 hours, 8 hours, 12 hours, and 24 hours.

[2] = system: huCART19 cells co-cultured with Nalm-6; assay: CART proliferation in 4 day co-culture with Nalm-6 in the presence of RAD001; format: cell-based, human
Method: The effect of low doses of RAD001 on CAR T cell proliferation in vitro was evaluated by co-culturing CART-expressing cells with target cells in the presence of different concentrations of RAD001.
A humanized, anti-human CD19 CAR (huCART19) lentiviral transfer vector was used to produce the genomic material packaged into VSVg pseudotyped lentiviral particles. The amino acid and nucleotide sequence of the humanized anti-human CD19 CAR (huCART19) is CAR 1, ID 104875 described in PCT publication, WO2014/153270, filed Mar. 15, 2014, and is designated SEQ ID NOs. 85 and 31 therein.
Lentiviral transfer vector DNA is mixed with the three packaging components VSVg env, gag/pol and rev in combination with lipofectamine reagent to transfect Lenti-X 293T cells. Medium is changed after 24 h and 30 h thereafter, the virus-containing media is collected, filtered and stored at −80° C. CARTs are generated by transduction of fresh or frozen naïve T cells obtained by negative magnetic selection of healthy donor blood or leukopak. T cells are activated by incubation with anti-CD3/anti-CD28 beads for 24 h, after which viral supernatant or concentrated virus (MOI=2 or 10, respectively) is added to the cultures. The modified T cells are allowed to expand for about 10 days. The percentage of cells transduced (expressing the CARs on the cell surface) and the level of CAR expression (relative fluorescence intensity, Geo Mean) are determined by flow cytometric analysis between days 7 and 9. The combination of slowing growth rate and T cell size approaching ˜350 fL determines the state for T cells to be cryopreserved for later analysis.
To evaluate the functionality of CARTs, the T cells are thawed and counted, and viability is assessed by Cellometer. The number of CAR-positive cells in each culture is normalized using non-transduced T cells (UTD). […]
For measuring the proliferation of CARTs, T cells are cultured with target cells at a ratio of 1:1. […] The number of T cells is assessed by flow cytometry using counting beads as reference.

[3] = system: NALM6-luc tumors; assay: NALM6-luc tumor growth with daily RAD001 dosing; format: in vivo, NSG mice; settings: daily oral dosing of RAD001 alone, 0.3, 1, 3 and 10 mg/kg; FIG. 7
Method: NALM6-luc cells: The NALM6 human acute lymphoblastic leukemia (ALL) cell line was developed from the peripheral blood of a patient with relapsed ALL. The cells were then tagged with firefly luciferase. These suspension cells grow in RPMI supplemented with 10% heat inactivated fetal bovine serum.
Mice: 6 week old NSG (NOD.Cg-Prkdc^scidIl2rg^tm1Wjl/SzJ) mice were received from the Jackson Laboratory (stock number 005557).
(§2) Tumor implantation: NALM6-luc cells were grown and expanded in vitro in RPMI supplemented with 10% heat inactivated fetal bovine serum. The cells were then transferred to a 15 ml conical tube and washed twice with cold sterile PBS. NALM6-luc cells were then counted and resuspended at a concentration of 10×10^6 cells per milliliter of PBS. The cells were placed on ice and immediately (within one hour) implanted in the mice. NALM6-luc cells were injected intravenously via the tail vein in a 100 μl volume, for a total of 1×10^6 cells per mouse.
as §1
PK analysis: Mice were dosed daily with RAD001 starting 7 days post tumor implantation. Dosing groups were as follows: 0.3 mg/kg, 1 mg/kg, 3 mg/kg, and 10 mg/kg. […]

[4] = system: huCAR19 CAR T cells; assay: In vivo proliferation of humanized CD19 CAR T cells with and without RAD001 dosing; design: species or system NSG mice
Method: This example evaluates the ability of huCAR19 cells to proliferate in vivo with different concentrations of RAD001.
as §2
CAR T cell dosing: Mice were administered 5×10^6 CAR T cells 7 days after tumor implantation. Cells were partially thawed in a 37 degree Celsius water bath and then completely thawed by the addition of 1 ml of cold sterile PBS to the tube containing the cells. The thawed cells were transferred to a 15 ml falcon tube and adjusted to a final volume of 10 mls with PBS. The cells were washed twice at 1000 rpm for 10 minutes each time and then counted on a hemocytometer. T cells were then resuspended at a concentration of 50×10^6 CAR T cells per ml of cold PBS and kept on ice until the mice were dosed. The mice were injected intravenously via the tail vein with 100 μl of the CAR T cells for a dose of 5×10^6 CAR T cells per mouse. Eight mice per group were treated either with 100 μl of PBS alone (PBS), or humanized CD19 CAR T cells.
as §1
Based on these doses, huCAR19 CAR T cells were dosed with and without RAD001 to determine the proliferative ability of these cells. The highest dose used was 3 mg/kg based on the levels of RAD001 in the blood 24 hours after dosing. As the concentration of RAD001 was above 10 nM 24 hours after the final dose of RAD001, several lower doses of RAD001 were used in the in vivo study with CAR T cells. The CAR T cells were dosed IV one day prior to the start of the daily oral RAD001 dosing. Mice were monitored via FACS for T cell expansion.

concentration at 24 h ([1]; NSG, mouse, blood, lowest dose tested (0.3 mg/kg), oral, day 0 and day 14 PK, read-out: RAD001 concentrations in the blood 24 hours after dosing): > 10 nM | concentration of RAD001 24 hours after the final dose ([1]; blood, NSG mice with NALM6 tumors): above 10 nM | stability in the blood of tumor bearing mice ([1]; daily oral RAD001, FIGS. 8A and 8B): fairly stable
Structure (SMILES): CO[C@H]1C[C@@H]2CC[C@@H](C)[C@@](O)(O2)C(=O)C(=O)N2CCCC[C@H]2C(=O)O[C@H]([C@H](C)C[C@@H]2CC[C@@H](OCCO)[C@H](OC)C2)CC(=O)[C@H](C)/C=C(\C)[C@@H](O)[C@@H](OC)C(=O)[C@H](C)C[C@H](C)/C=C/C=C/C=C/1C [RAD001, (1R,9S,12S,15R,16E,18R,19R,21R,23S,24E,26E,28E,30S,32S,35R)-1,18-dihydroxy-12-{(1R)-2-[(1S,3R,4R)-4-(2-hydroxyethoxy)-3-methoxycyclohexyl]-1-methylethyl}-19,30-dimethoxy-15,17,21,23,29,35-hexamethyl-11,36-dioxa-4-aza-tricyclo[30.3.1.04,9]hexatriaconta-16,24,26,28-tetraene-2,3,10,14,20-pentaone]
proliferation of huCART19 compared with no RAD001 ([2]; 0.0032 and 0.016 nM RAD001, 4 day co-culture with Nalm-6): higher than observed without the addition of RAD001 | RAD001 concentration at which huCART19 cells expanded ([2]; 4 day co-culture with Nalm-6 at 1:1, to a lesser extent at higher concentrations, FIG. 6): less than 0.016 nM | proliferation of CAR-expressing, transduced T cells ([2]; low doses of RAD001, co-culture with Nalm-6, 4 days, FIG. 6 legend): enhanced | growth of NALM6-luc tumors [3]: did not have an impact | CAR T cell proliferation relative to normal level of huCAR19 proliferation ([4]; RAD001 0.003 mg/kg daily, FIG. 9 legend): enhancement in CAR T cell proliferation | proliferation of the CAR T cells in vivo ([4]; lowest doses of RAD001, daily oral, huCAR19 CAR T cells IV one day before, FIGS. 9A and 9B): enhanced proliferation | enhanced proliferation, CD4+ CAR T cells compared with CD8+ CAR T cells ([4]; lowest doses of RAD001, FIG. 9A): more evident and prolonged | proliferation of CD8+ CAR T cells ([4]; lowest doses of RAD001, FIG. 9B): enhanced proliferation can be seen at early time points
